Source: patent US12281122B1, “PI3K inhibitors” (Cogent Biosciences, Inc., priority 2023, dated 2025)
pIC50: −log10 of the molar value.

How the values were obtained:
[1] = test system: SKBR3 (PI3Kα-Wild Type) cell line; experiment: HTRF phospho-AKT(S473) cell assay in SKBR3 cells; format: cell-based, human; conditions: 2 hours compound incubation, PDGF-BB stimulated
Procedure, shortened: (§1)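 T47D (PI3Kα-H1047R; RPMI, 10% FBS, insulin) and SKBR3 (wild-type PI3Kα; McCoy's 5A, 10% FBS) cells treated 2 h at 37 °C with 12-point 1:3 dilutions, top 5 μM and 10 μM respectively, ≤0.5% DMSO. SKBR3 stimulated with 70 ng/ml PDGF-BB for the last 15 min; lysate pAKT(S473) by HTRF, IC50 from curves.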

[2] = test system: T47D (PI3Kα-H1047R) cell line; experiment: HTRF phospho-AKT(S473) cell assay in T47D cells; format: cell-based, human; conditions: 2 hours compound incubation
Procedure, shortened: as §1

[3] = Homo sapiens, SK-BR-3, HTRF phospho-AKT(S473), SKBR3 (PI3Kα-Wild Type) cells
[4] = Homo sapiens, HTRF phospho-AKT(S473), T47D (PI3Kα-H1047R) cells
[5] = Homo sapiens, SK-BR-3, SKBR3 (PI3Kα-Wild Type) cells, HTRF phospho-AKT(S473)
[6] = Homo sapiens, T47D (PI3Kα-H1047R) cells, HTRF phospho-AKT(S473)

| pIC50 [1, 3] | pIC50 [2, 4] | pIC50 [1, 5] | pIC50 [2, 6] | SMILES | further results |
| --- | --- | --- | --- | --- | --- |
| ≤ 5.30 | 6.30 to 6.60 | – | – | Cc1cc([C@@H](C)Nc2ccc(Cl)nc2C(=O)NS(C)(=O)=O)c2nc(N3CCN(c4ncccc4F)CC3)n(C)c(=O)c2c1 [Compound 662, (R)-6-chloro-3-((1-(2-(4-(3-fluoropyridin-2-yl)piperazin-1-yl)-3,6-dimethyl-4-oxo-3,4-dihydroquinazolin-8-yl)ethyl)amino)-N-(methylsulfonyl) picolinamide] | – |
| – | – | – | – | Cc1cc([C@@H](C)Nc2ccc(Cl)nc2C(=O)NS(C)(=O)=O)c2nc(N3CCCC(c4ncc(Cl)cn4)C3)n(C)c(=O)c2c1 (stereo in doubt) [Compound 587, 6-chloro-3-(((R)-1-(2-((R*)-3-(5-chloropyrimidin-2-yl)piperidin-1-yl)-3,6-dimethyl-4-oxo-3,4-dihydroquinazolin-8-yl)ethyl)amino)-N-(methylsulfonyl) picolinamide] | pIC50 ([1]; HTRF phospho-AKT(S473), SKBR3 (PI3Kα-Wild Type) cells): ≤ 5.30; pIC50 ([2]; HTRF phospho-AKT(S473), T47D (PI3Kα-H1047R) cells): 6.30 to 6.60 |
| – | – | – | – | Cc1cc([C@@H](C)Nc2ccc(Cl)nc2C(=O)NS(C)(=O)=O)c2nc(-c3cnc(N(C)C)nc3)n(C)c(=O)c2c1 [Compound 852, (R)-6-chloro-3-((1-(2-(2-(dimethylamino)pyrimidin-5-yl)-3,6-dimethyl-4-oxo-3,4-dihydroquinazolin-8-yl)ethyl)amino)-N-(methylsulfonyl) picolinamide] | pIC50 ([1]; Homo sapiens, SK-BR-3, SKBR3 (PI3Kα-Wild Type) cell line, phospho-AKT(S473) HTRF): ≤ 5.30; pIC50 ([2]; Homo sapiens, T47D (PI3Kα-H1047R) cell line, phospho-AKT(S473) HTRF): 6.30 to 6.60 |
| – | – | 5.30 to 6.00 | > 6.60 | Cc1cc([C@@H](C)Nc2ccc(Cl)nc2C(=O)NS(C)(=O)=O)c2nc(N3CCC(c4c(F)cnn4C)CC3)n(C)c(=O)c2c1 [Compound 412, (R)-6-chloro-3-((1-(2-(4-(4-fluoro-1-methyl-1H-pyrazol-5-yl)piperidin-1-yl)-3,6-dimethyl-4-oxo-3,4-dihydroquinazolin-8-yl)ethyl)amino)-N-(methylsulfonyl) picolinamide] | – |
| ≤ 5.30 | 6.30 to 6.60 | – | – | Cc1cc([C@@H](C)Nc2ccc(Cl)nc2C(=O)NS(C)(=O)=O)c2nc(-c3ccccc3)n(C)c(=O)c2c1 [Compound 813, (R)-6-chloro-3-((1-(3,6-dimethyl-4-oxo-2-phenyl-3,4-dihydroquinazolin-8-yl)ethyl)amino)-N-(methylsulfonyl) picolinamide] | – |
| – | – | 5.30 to 6.00 | > 6.60 | Cc1cc([C@@H](C)Nc2ccc(Cl)nc2C(=O)NS(C)(=O)=O)c2nc(N3CCc4nn(CC5CC5)cc4C3)n(C)c(=O)c2c1 [Compound 279, (R)-6-chloro-3-((1-(2-(2-(cyclopropylmethyl)-2,4,6,7-tetrahydro-5H-pyrazolo[4,3-c]pyridin-5-yl)-3,6-dimethyl-4-oxo-3,4-dihydroquinazolin-8-yl)ethyl)amino)-N-(methylsulfonyl) picolinamide] | – |
| – | – | 5.30 to 6.00 | > 6.60 | Cc1cc([C@@H](C)Nc2ccc(Cl)nc2C(=O)NS(C)(=O)=O)c2nc(N3CCC(c4cnc(C)nc4)CC3)n(C)c(=O)c2c1 [Compound 261, (R)-6-chloro-3-((1-(3,6-dimethyl-2-(4-(2-methylpyrimidin-5-yl)piperidin-1-yl)-4-oxo-3,4-dihydroquinazolin-8-yl)ethyl)amino)-N-(methylsulfonyl) picolinamide] | – |
| ≤ 5.30 | 5.30 to 6.00 | – | – | Cc1cc([C@@H](C)Nc2ccc(Cl)nc2C(=O)NS(C)(=O)=O)c2nc(N3CCC[C@H](c4nccc(C)n4)C3)n(C)c(=O)c2c1 (relative stereo) [Compound 648, 6-chloro-3-(((R)-1-(3,6-dimethyl-2-((R*)-3-(4-methylpyrimidin-2-yl)piperidin-1-yl)-4-oxo-3,4-dihydroquinazolin-8-yl)ethyl)amino)-N-(methylsulfonyl) picolinamide] | – |
| ≤ 5.30 | > 6.60 | – | – | Cc1cc([C@@H](C)Nc2ccc(Cl)nc2C(=O)NS(C)(=O)=O)c2nc(N3CCC[C@H](c4cnc(C)nc4)C3)n(C)c(=O)c2c1 (relative stereo) [Compound 646, 6-chloro-3-(((R)-1-(3,6-dimethyl-2-((R*)-3-(2-methylpyrimidin-5-yl)piperidin-1-yl)-4-oxo-3,4-dihydroquinazolin-8-yl)ethyl)amino)-N-(methylsulfonyl) picolinamide] | – |
| – | – | ≤ 5.30 | 6.30 to 6.60 | Cc1cc([C@@H](C)Nc2ccc(Cl)nc2C(=O)NS(C)(=O)=O)c2nc(N3CCC(C)(c4c(F)cnn4C)CC3)n(C)c(=O)c2c1 [Compound 407, (R)-6-chloro-3-((1-(2-(4-(4-fluoro-1-methyl-1H-pyrazol-5-yl)-4-methylpiperidin-1-yl)-3,6-dimethyl-4-oxo-3,4-dihydroquinazolin-8-yl)ethyl)amino)-N-(methylsulfonyl) picolinamide] | – |
| ≤ 5.30 | 6.30 to 6.60 | – | – | Cc1cnc(N2C[C@H]3C[C@@H]2CN3c2nc3c([C@@H](C)Nc4ccc(Cl)nc4C(=O)NS(C)(=O)=O)cc(C)cc3c(=O)n2C)nc1 [Compound 565, 6-chloro-3-(((R)-1-(3,6-dimethyl-2-((1R,4R)-5-(5-methylpyrimidin-2-yl)-2,5-diazabicyclo[2.2.1]heptan-2-yl)-4-oxo-3,4-dihydroquinazolin-8-yl)ethyl)amino)-N-(methylsulfonyl) picolinamide] | – |
| 5.30 to 6.00 | > 6.60 | – | – | Cc1cc([C@@H](C)Nc2ccc(Cl)nc2C(=O)NS(C)(=O)=O)c2nc(N3CCC(c4csc(C)n4)CC3)n(C)c(=O)c2c1 [Compound 503, (R)-6-chloro-3-((1-(3,6-dimethyl-2-(4-(2-methylthiazol-4-yl)piperidin-1-yl)-4-oxo-3,4-dihydroquinazolin-8-yl)ethyl)amino)-N-(methylsulfonyl) picolinamide] | – |
| ≤ 5.30 | 6.30 to 6.60 | – | – | Cc1cc([C@@H](C)Nc2ccc(Cl)nc2C(=O)NS(C)(=O)=O)c2nc(N3C[C@@H]4[C@H](C3)[C@H]4c3nn(C4CC4)cc3F)n(C)c(=O)c2c1 [Compound 569, 6-chloro-3-(((R)-1-(2-((1R,5S,6R)-6-(1-cyclopropyl-4-fluoro-1H-pyrazol-3-yl)-3-azabicyclo[3.1.0]hexan-3-yl)-3,6-dimethyl-4-oxo-3,4-dihydroquinazolin-8-yl)ethyl)amino)-N-(methylsulfonyl) picolinamide] | – |
| – | – | 5.30 to 6.00 | > 6.60 | Cc1cc([C@@H](C)Nc2ccc(Cl)nc2C(=O)NS(C)(=O)=O)c2nc(N3Cc4cn(-c5ccncc5)nc4C3)n(C)c(=O)c2c1 [Compound 192, (R)-6-chloro-3-((1-(3,6-dimethyl-4-oxo-2-(2-(pyridin-4-yl)-2,6-dihydropyrrolo[3,4-c]pyrazol-5(4H)-yl)-3,4-dihydroquinazolin-8-yl)ethyl)amino)-N-(methylsulfonyl) picolinamide] | – |
| ≤ 5.30 | 6.30 to 6.60 | – | – | Cc1cc([C@@H](C)Nc2ccc(Cl)nc2C(=O)NS(C)(=O)=O)c2nc(N3C[C@H]4C[C@@H]3CN4c3ncc(F)cn3)n(C)c(=O)c2c1 [Compound 668, 6-chloro-3-(((R)-1-(2-((1R,4R)-5-(5-fluoropyrimidin-2-yl)-2,5-diazabicyclo [2.2.1]heptan-2-yl)-3,6-dimethyl-4-oxo-3,4-dihydroquinazolin-8-yl)ethyl)amino)-N-(methylsulfonyl) picolinamide] | – |
| – | – | 5.30 to 6.00 | > 6.60 | Cc1cc([C@@H](C)Nc2ccc(Cl)nc2C(=O)NS(C)(=O)=O)c2nc(N3Cc4cn(-c5ccc(C#N)cc5C)nc4C3)n(C)c(=O)c2c1 [Compound 250, (R)-6-chloro-3-((1-(2-(2-(4-cyano-2-methylphenyl)-2,6-dihydropyrrolo[3,4-c]pyrazol-5(4H)-yl)-3,6-dimethyl-4-oxo-3,4-dihydroquinazolin-8-yl)ethyl)amino)-N-(methylsulfonyl) picolinamide] | – |
| – | – | 5.30 to 6.00 | > 6.60 | Cc1cc([C@@H](C)Nc2ccc(Cl)nc2C(=O)NS(C)(=O)=O)c2nc(N3CC[C@@H](Oc4cc[nH]n4)C3)n(C)c(=O)c2c1 [Compound 363, 3-(((R)-1-(2-((R)-3-((1H-pyrazol-3-yl)oxy)pyrrolidin-1-yl)-3,6-dimethyl-4-oxo-3,4-dihydroquinazolin-8-yl)ethyl)amino)-6-chloro-N-(methylsulfonyl) picolinamide] | – |
| ≤ 5.30 | 6.30 to 6.60 | – | – | Cc1cc([C@@H](C)Nc2ccc(Cl)nc2C(=O)NS(C)(=O)=O)c2nc(N3CCC(n4ncc5ccccc54)CC3)n(C)c(=O)c2c1 [Compound 685, (R)-3-((1-(2-(4-(1H-indazol-1-yl)piperidin-1-yl)-3,6-dimethyl-4-oxo-3,4-dihydroquinazolin-8-yl)ethyl)amino)-6-chloro-N-(methylsulfonyl) picolinamide] | – |
| 5.30 to 6.00 | > 6.60 | – | – | Cc1cc([C@@H](C)Nc2ccc(Cl)nc2C(=O)NS(C)(=O)=O)c2nc(N3C[C@@H]4[C@H](C3)[C@H]4c3coc(C)n3)n(C)c(=O)c2c1 [Compound 448, 6-chloro-3-(((R)-1-(3,6-dimethyl-2-((1R,5S,6R)-6-(2-methyloxazol-4-yl)-3-azabicyclo[3.1.0]hexan-3-yl)-4-oxo-3,4-dihydroquinazolin-8-yl)ethyl)amino)-N-(methylsulfonyl) picolinamide] | – |
